Species: Rattus norvegicus
Assay: DrugMatrix - Regimen: Daily Repeat
Format: toxicity, organism-based, Sprague-Dawley
Design: regimen Daily Repeat, gender Male, age 6-8 weeks
Settings: in vivo, ip, 10 mg/kg, route intraperitoneal, dose level High, vehicle 100 % SALINE; for ALANINE AMINOTRANSFERASE / ALBUMIN / ALKALINE PHOSPHATASE / ASPARTATE AMINOTRANSFERASE / BLOOD UREA NITROGEN / CHLORIDE / CHOLESTEROL / CREATINE PHOSPHOKINASE / CREATININE / GLUCOSE / LACTATE DEHYDROGENASE / LIPASE / PHOSPHORUS / SODIUM / TOTAL BILIRUBIN / TOTAL PROTEIN / URIC ACID / POTASSIUM: tissue Plasma
[1] = 120 h, tissue Blood, time 5 day

## COBALTOUS CHLORIDE
[1]
  ABSOLUTE EOSINOPHIL: 74 cells/µL
  ABSOLUTE LYMPHOCYTE: 8680 cells/µL
  ABSOLUTE MONOCYTE: 210 cells/µL
  ABSOLUTE SEGMENTED NEUTROPHIL: 1660 cells/µL
  BASOPHIL: 0.44%
  EOSINOPHIL: 0.68%
  ERYTHROCYTE COUNT: 7.83 x10E6/uL
  HEMATOCRIT: 48.96%
  HEMOGLOBIN: 15.82 G/DL
  LEUKOCYTE COUNT: 10.72 x10E3/uL
  LYMPHOCYTE: 81.38%
  MEAN CORPUSCULAR HEMOGLOBIN: 20.22 pg
  MEAN CORPUSCULAR HEMOGLOBIN CONCENTRATION: 32.34 G/DL
  MEAN CORPUSCULAR VOLUME: 62.58 fL
  MONOCYTE: 1.94%
  NEUTROPHIL: 15.1%
  PLATELET COUNT: 1648.2 x10E3/uL
120 h, time 5 day
  ALANINE AMINOTRANSFERASE: 27.2 u/L
  ALBUMIN: 3.7 G/DL
  ALKALINE PHOSPHATASE: 212.6 u/L
  ASPARTATE AMINOTRANSFERASE: 86.6 u/L
  BLOOD UREA NITROGEN: 17.2 mg/dL
  CHLORIDE: 110.4 MEQ/L
  CHOLESTEROL: 49.8 mg/dL
  CREATINE PHOSPHOKINASE: 277.6 u/L
  CREATININE: 0.56 mg/dL
  GLUCOSE: 125.8 mg/dL
  LACTATE DEHYDROGENASE: 60.2 u/L
  LIPASE: 31.2 u/L
  PHOSPHORUS: 11.88 mg/dL
  SODIUM: 148.6 MEQ/L
  TOTAL BILIRUBIN: 0.26 mg/dL
  TOTAL PROTEIN: 6.26 G/DL
  URIC ACID: 1.38 mg/dL
[…], tissue Blood, time 14 day
  ABSOLUTE BASOPHIL: 72 cells/µL
  ABSOLUTE EOSINOPHIL: 76 cells/µL
  ABSOLUTE LYMPHOCYTE: 8200 cells/µL
  ABSOLUTE MONOCYTE: 260 cells/µL
  ABSOLUTE SEGMENTED NEUTROPHIL: 1320 cells/µL
  BASOPHIL: 0.66%
  EOSINOPHIL: 0.8%
  ERYTHROCYTE COUNT: 8.58 x10E6/uL
  HEMATOCRIT: 54.6%
  HEMOGLOBIN: 17.66 G/DL
  LEUKOCYTE COUNT: 9.97 x10E3/uL
  LYMPHOCYTE: 81.92%
  MEAN CORPUSCULAR HEMOGLOBIN: 20.62 pg
  MEAN CORPUSCULAR HEMOGLOBIN CONCENTRATION: 32.34 G/DL
  MONOCYTE: 2.54%
  NEUTROPHIL: 13.72%
  PLATELET COUNT: 1213.6 x10E3/uL
[…], tissue Blood, time 28 day
  ABSOLUTE BASOPHIL: 170 cells/µL
  ABSOLUTE EOSINOPHIL: 160 cells/µL
  ABSOLUTE LYMPHOCYTE: 8960 cells/µL
  ABSOLUTE MONOCYTE: 240 cells/µL
  ABSOLUTE SEGMENTED NEUTROPHIL: 2230 cells/µL
  BASOPHIL: 1.38%
  EOSINOPHIL: 1.23%
  ERYTHROCYTE COUNT: 9.9 x10E6/uL
  HEMATOCRIT: 61.68%
  HEMOGLOBIN: 19.49 G/DL
  LEUKOCYTE COUNT: 11.78 x10E3/uL
  LYMPHOCYTE: 76.07%
  MEAN CORPUSCULAR HEMOGLOBIN: 19.7 pg
  MEAN CORPUSCULAR HEMOGLOBIN CONCENTRATION: 31.56 G/DL
  MONOCYTE: 2.09%
  NEUTROPHIL: 19.02%
  PLATELET COUNT: 1119.7 x10E3/uL
[…], time 14 day
  ALANINE AMINOTRANSFERASE: 29 u/L
  ALBUMIN: 3.74 G/DL
  ALKALINE PHOSPHATASE: 189.6 u/L
  ASPARTATE AMINOTRANSFERASE: 91.8 u/L
  BLOOD UREA NITROGEN: 14.6 mg/dL
  CHLORIDE: 112 MEQ/L
  CHOLESTEROL: 48.8 mg/dL
  CREATINE PHOSPHOKINASE: 182.6 u/L
  CREATININE: 0.52 mg/dL
  GLUCOSE: 124.8 mg/dL
  LACTATE DEHYDROGENASE: 103.2 u/L
  LIPASE: 22 u/L
  POTASSIUM: 6.24 MEQ/L
  SODIUM: 149.8 MEQ/L
  TOTAL BILIRUBIN: 0.26 mg/dL
  TOTAL PROTEIN: 6.68 G/DL
  URIC ACID: 1.26 mg/dL
[…], time 28 day
  ALANINE AMINOTRANSFERASE: 38.1 u/L
  ALBUMIN: 3.64 G/DL
  ALKALINE PHOSPHATASE: 126.6 u/L
  ASPARTATE AMINOTRANSFERASE: 117.5 u/L
  BLOOD UREA NITROGEN: 15.5 mg/dL
  CHLORIDE: 110.7 MEQ/L
  CHOLESTEROL: 27.7 mg/dL
  CREATINE PHOSPHOKINASE: 386.4 u/L
  CREATININE: 0.7 mg/dL
  GLUCOSE: 88.3 mg/dL
  LACTATE DEHYDROGENASE: 116.6 u/L
  LIPASE: 2.8 u/L
  PHOSPHORUS: 10.92 mg/dL
  POTASSIUM: 6.81 MEQ/L
  SODIUM: 152.5 MEQ/L
  TOTAL BILIRUBIN: 0.33 mg/dL
  TOTAL PROTEIN: 6.59 G/DL
  URIC ACID: 1.31 mg/dL
